Where two headings read alike, the source gives them in different places.
Legend:
[1] = target: Ba/F3-FL-EGFR (L858R/T790M/C797S) (Homo sapiens, UniProt P00533, T790M/C797S/L858R, cells depend on it); test: Cell proliferation inhibition, CellTiter-Glo; assay type: cell-based
Protocol: AdenosineTri-Phosphate (ATP) is an energy carrier shared by various life activities in nature, and is the smallest unit of energy storage and transfer. The CellTiter-Glo™ living cell assay kit uses luciferase as a detector, and luciferase requires the participation of ATP in the process of luminescence. CellTiter-Glo™ reagent is added to a cell culture medium, and the luminescence value is measured. The light signal is directly proportional to the amount of ATP in the system, and ATP is positively correlated with the number of living cells. Therefore, cell proliferation can be detected by detecting ATP content with the CellTiter-Glo kit. In this assay, the cell lines were Ba/F3-FL-EGFR (L858R/T790M/C797S), Ba/F3-FL-EGFR (WT), Ba/F3-FL-EGFR (L858R), Ba/F3-FL-EGFR (del19-S752-I759), Ba/F3-FL-EGFR (del19-E746-A750/T790M/C797S), Ba/F3-FL-EGFR (L858R/T790M), Ba/F3-FL-EGFR (del19-E746-A750/T790M), Ba/F3-TEL-EGFR (L858R/C797S), Ba/F3-FL-EGFR (del19-E746-A750/C797S) stably transfected cell lines.
The cell lines were cultured in an incubator at 37° C. and 5% CO2. The cells were periodically passaged, and cells in logarithmic growth phase were taken for plating.
a) DMSO was used to prepare a 10 mM solution of the compound to be tested, and then the compound to be tested was diluted to 0.3 or 1 mM with DMSO.
b) Preparation of 1000× compound storage plate (tube): DMSO was used to dilute by 3-fold gradient from the highest concentration to the lowest concentration, with a total of 9 concentrations.
c) Preparation of 20× compound working solution: 49 μL of cell culture medium was added to a flat-bottomed 96-well transparent drug plate, and 1 μL of compound was pipetted from the 1000× compound storage plate to the cell culture medium of the 96-well transparent drug plate. 1 μL of DMSO was added to the vehicle control. After adding compound or DMSO, the well content was mixed to uniform by aspiration and expelling with pipette.
a) Cells were stained with trypan blue and viable cells were counted. The cell viability rate was required to be above 90%.
b) 95 μL of cell suspension (2000 cells/well) was added to each well of the compound detection cell plate, and culture medium without cells (containing 0.1% DMSO) was added to the Min control well.
c) Dosing in the compound detection cell plate: 5 μL of 20× compound working solution was added to the cell culture plate. 5 μL of DMSO-cell culture mixture was added to the Max control. The final concentration of DMSO was 0.1%.
d) The culture plate was incubated in an incubator at 37° C., 5% CO2 for 72 hours.
Cell proliferation inhibition rate (Inhibition Rate) data were processed using the following formula:
Inhibition Rate (Inh %)=100−(RLUDrug−RLUMin)/(RLUMax−RLUMin)*100%.
The inhibition rates corresponding to different concentrations of compounds were calculated, and then GraphPad Prism software was used to draw the inhibition rate curve and the IC50 value was calculated.

CYP3A4 = target: T1, CYP3A4 (Homo sapiens, UniProt P08684); test: Cytochrome P450 isoenzyme inhibition, human liver microsomes; assay type: in vitro ADME; conditions: read-out: Cytochrome P450 isoenzyme inhibitory concentration CYP3A4
T1 construct: from tissue; host or cells: human liver microsomes
T1 sequence (P08684 whole entry): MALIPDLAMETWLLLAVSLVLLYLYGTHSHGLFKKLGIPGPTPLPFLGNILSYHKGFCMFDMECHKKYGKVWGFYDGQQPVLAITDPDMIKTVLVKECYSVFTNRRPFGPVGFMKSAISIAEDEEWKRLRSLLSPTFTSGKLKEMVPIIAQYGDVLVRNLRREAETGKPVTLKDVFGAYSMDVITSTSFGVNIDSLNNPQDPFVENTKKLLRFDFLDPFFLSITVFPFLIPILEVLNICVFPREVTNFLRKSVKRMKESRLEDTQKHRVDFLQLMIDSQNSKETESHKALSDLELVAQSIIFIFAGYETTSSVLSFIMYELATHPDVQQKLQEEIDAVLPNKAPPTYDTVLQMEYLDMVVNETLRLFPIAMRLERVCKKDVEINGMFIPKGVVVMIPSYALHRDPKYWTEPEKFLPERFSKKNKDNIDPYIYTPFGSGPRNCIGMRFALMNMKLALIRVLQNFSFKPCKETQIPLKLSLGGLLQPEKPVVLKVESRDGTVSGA
Protocol: (§1) The purpose of this study was to determine the inhibitory effect of test compounds on the activity of human liver microsomal cytochrome P450 isoenzymes (CYP1A2, CYP2C9, CYP2C19, CYP2D6 and CYP3A4).
(§2) Working solutions (100×final concentration) with concentrations of 5.00, 1.50, 0.500, 0.150, 0.0500, 0.0150, and 0.00500 mM were prepared by gradient dilution of the test compound (10.0 mM), while working solutions of each positive inhibitor and its specific substrate mixtures of P450 isozymes (CYP1A2, CYP2C9, CYP2C19, CYP2D6, and CYP3A4) were prepared; human liver microsomes stored in a refrigerator below −60° C. were thawed on ice; after all the human liver microsomes were thawed, the human liver microsomes were diluted with Potassium phosphate buffer (PB) to prepare a certain concentration of working solution (0.253 mg/ml).
(§3) First, 20.0 μL of the substrate mixture was added to a reaction plate (20.0 μL of PB was added to the Blank well), then 158 μL of human liver microsomal working solution was added to the reaction plate, and the reaction plate was placed on ice for use; at this time, 2.00 μL of each concentration of the test compound (N=1) and specific inhibitor (N=2) were added to the corresponding wells, and to the group without inhibitor (test compound or positive inhibitor) was added the corresponding organic solvent as control samples (1:1 DMSO:MeOH for the control sample of the test compound, and 1:9 DMSO:MeOH for all the positive control samples); after pre-incubation in a water bath at 37° C. for 10 min, 20.0 μL of cofactor (NADPH) solution was added to the reaction plate, and the reaction plate was incubated in a water bath at 37° C. for 10 min; The reaction was terminated by adding 400 μL of pre-cooled acetonitrile solution (containing 200 ng/mL Tolbutamide and Labetalol internal standard); the reaction plate was shaken on a shaker for 10 min; then centrifuged at 4000 rpm at 4° C. for 20 min; 200 μL of the supernatant was added to 100 μL of water to dilute the samples; and the plate was sealed, shaken for 10 min to mix well, and then analyzed by LC/MS/MS.
(§4) The rate of production of metabolites of each probe substrate was used to reflect the activity of each CYP isozyme. The activity of each isozyme in the solvent control incubation system without test article or positive inhibitor was set to be 100%, and the rate of production of metabolites of the probe substrate with different concentrations of test article or positive inhibitor was divided by the rate of production of metabolites of the solvent control samples, and then multiplied by 100% as the percentage of residual activity of each isozyme. The IC50 values of the test article and each positive inhibitor were calculated by nonlinear regression analysis using three or four parameters in XL fit software with the percentage of residual activity as the vertical coordinate and the inhibitor concentration as the horizontal coordinate. The IC50 values were labeled as “>50 μM” when the IC50 fitted by XL fit software was greater than the highest administered concentration (50 μM) or when the IC50 could not be fitted.

CYP2C19 = target: T2, CYP2C19 (Homo sapiens, UniProt P33261); test: as above; assay type: in vitro ADME; conditions: read-out: Cytochrome P450 isoenzyme inhibitory concentration CYP2C19
T2 construct: from tissue; host or cells: human liver microsomes
T2 sequence (P33261 whole entry): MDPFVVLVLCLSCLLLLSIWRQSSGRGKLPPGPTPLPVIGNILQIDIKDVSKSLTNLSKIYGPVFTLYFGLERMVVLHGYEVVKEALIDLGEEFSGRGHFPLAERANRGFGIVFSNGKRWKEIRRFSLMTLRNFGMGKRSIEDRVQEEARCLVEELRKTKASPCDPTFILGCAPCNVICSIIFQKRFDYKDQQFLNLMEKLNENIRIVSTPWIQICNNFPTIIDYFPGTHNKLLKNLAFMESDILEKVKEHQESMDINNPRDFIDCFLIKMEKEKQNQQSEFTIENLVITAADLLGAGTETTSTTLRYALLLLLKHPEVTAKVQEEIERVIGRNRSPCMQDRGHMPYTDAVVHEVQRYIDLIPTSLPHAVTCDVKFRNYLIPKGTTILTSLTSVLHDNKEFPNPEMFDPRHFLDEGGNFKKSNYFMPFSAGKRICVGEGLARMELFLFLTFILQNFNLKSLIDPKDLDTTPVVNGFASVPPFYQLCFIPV
Protocol: as §1, §2, §3, §4

CYP1A2 = target: T3, CYP1A2 (Homo sapiens, UniProt P05177); test: as above; assay type: in vitro ADME; conditions: read-out: Cytochrome P450 isoenzyme inhibitory concentration CYP1A2
T3 construct: from tissue; host or cells: human liver microsomes
T3 sequence (P05177 whole entry): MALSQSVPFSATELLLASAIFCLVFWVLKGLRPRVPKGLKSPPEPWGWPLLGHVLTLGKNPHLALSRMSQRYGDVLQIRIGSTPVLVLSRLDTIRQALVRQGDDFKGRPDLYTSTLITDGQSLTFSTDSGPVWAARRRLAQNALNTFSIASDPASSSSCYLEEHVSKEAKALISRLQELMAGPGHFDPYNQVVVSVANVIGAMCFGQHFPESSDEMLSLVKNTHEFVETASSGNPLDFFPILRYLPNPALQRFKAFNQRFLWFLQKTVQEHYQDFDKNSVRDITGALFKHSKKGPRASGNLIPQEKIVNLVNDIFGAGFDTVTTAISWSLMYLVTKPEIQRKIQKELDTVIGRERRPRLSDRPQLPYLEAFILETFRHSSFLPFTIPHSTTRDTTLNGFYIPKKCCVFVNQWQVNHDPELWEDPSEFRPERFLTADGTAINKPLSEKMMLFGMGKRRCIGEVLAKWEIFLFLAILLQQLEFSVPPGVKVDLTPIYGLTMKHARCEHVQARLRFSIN
Protocol: as §1, §2, §3, §4

[2] = 72 hours, read-out: Cell half-maximal inhibition concentration IC50 Ba/F3-FL-EGFR (L858R/T790M/C797S)

Chain of Ba/F3-FL-EGFR (L858R/T790M/C797S) (P00533 whole entry T790M/C797S/L858R): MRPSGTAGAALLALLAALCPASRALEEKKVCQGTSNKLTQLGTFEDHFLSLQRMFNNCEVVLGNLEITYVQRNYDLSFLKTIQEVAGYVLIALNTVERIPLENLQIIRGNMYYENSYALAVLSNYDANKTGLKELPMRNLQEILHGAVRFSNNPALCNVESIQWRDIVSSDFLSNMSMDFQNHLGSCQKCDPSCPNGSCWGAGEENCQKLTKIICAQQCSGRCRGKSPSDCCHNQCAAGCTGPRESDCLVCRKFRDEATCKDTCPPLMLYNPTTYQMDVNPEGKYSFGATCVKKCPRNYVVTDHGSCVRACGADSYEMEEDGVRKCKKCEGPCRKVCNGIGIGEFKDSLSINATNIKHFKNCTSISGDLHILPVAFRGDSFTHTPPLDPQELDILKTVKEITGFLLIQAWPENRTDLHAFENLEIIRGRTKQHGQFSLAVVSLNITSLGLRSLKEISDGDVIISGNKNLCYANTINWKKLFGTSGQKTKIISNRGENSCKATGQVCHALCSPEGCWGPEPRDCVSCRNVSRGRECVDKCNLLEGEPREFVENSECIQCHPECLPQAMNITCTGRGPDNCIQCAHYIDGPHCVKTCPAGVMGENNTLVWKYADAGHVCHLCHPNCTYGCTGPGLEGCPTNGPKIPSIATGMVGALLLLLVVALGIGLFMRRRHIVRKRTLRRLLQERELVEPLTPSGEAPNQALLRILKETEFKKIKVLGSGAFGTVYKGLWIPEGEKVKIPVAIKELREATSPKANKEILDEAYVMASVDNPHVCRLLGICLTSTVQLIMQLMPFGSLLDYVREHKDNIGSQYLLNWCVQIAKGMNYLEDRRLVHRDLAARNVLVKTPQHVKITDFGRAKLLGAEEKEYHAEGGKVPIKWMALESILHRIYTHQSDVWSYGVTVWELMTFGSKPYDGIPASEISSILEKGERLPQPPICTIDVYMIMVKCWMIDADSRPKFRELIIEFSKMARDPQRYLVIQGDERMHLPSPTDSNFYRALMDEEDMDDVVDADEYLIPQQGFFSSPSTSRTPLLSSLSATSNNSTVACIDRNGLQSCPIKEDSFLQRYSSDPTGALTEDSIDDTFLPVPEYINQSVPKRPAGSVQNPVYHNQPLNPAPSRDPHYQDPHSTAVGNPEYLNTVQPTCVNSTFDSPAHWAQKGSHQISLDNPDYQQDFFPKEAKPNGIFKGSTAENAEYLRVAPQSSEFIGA

Row | Compound | GI50 [1, 2] [µM] | IC50 (CYP3A4) [µM] | IC50 (CYP2C19) [µM] | IC50 (CYP1A2) [µM] | GI50 ([1]; read-out: Cell half-maximal inhibition concentration IC50 Ba/F3-FL-EGFR (L858R/T790M/C797S), 72 hours) [µM]
1 | Cc1cc2cc(n1)-c1cnn(C)c1OC[C@H]1CC[C@H](C1)CN1/C(=N/C2=O)Nc2ccc(N=S(C)(C)=O)cc21 (single isomer, unassigned) [WX-027A] | 0.0086 | 20 | 9.8 | > 50 | 
2 | Cc1cc2cc(n1)-c1cnn(C)c1OCCC[C@@H](C)CN1/C(=N/C2=O)Nc2ccc(N=S(C)(C)=O)c(Cl)c21 [WX-019] | 0.0057 | > 50 | 3.4 | > 50 | 
3 | Cc1cc2cc(n1)-c1cnn(C)c1OCCC[C@@H](C)CN1/C(=N/C2=O)Nc2ccc(N=S3(=O)CCOCC3)cc21 [WX-013] |  |  |  |  | 0.0043
4 | Cc1cc2cc(n1)-c1cnn(C)c1OCCC[C@@H](C)CN1/C(=N/C2=O)Nc2ccc(N=S3(=O)CCCC3)cc21 [WX-010 (trifluoroacetate)] | 0.0028 |  |  |  | 

Reference: US20250084097A1, “MACROCYCLIC AMIDE COMPOUNDS AND APPLICATION THEREOF” (Medshine Discovery Inc., priority 2021, published 2025)
